Test results reported in US20250002435A1, “ARYLATED FENCHONE DERIVATIVES, COMPOSITIONS COMPRISING THEM, PROCESSES FOR THEIR PREPARATION AND USES THEREOF” (priority 2021, published 2025).

Tests used:
TNFα = test: serum TNFα ELISA 24 h after zymosan injection; type: in vivo, mouse; conditions: 25 mg/kg, serum 24 h after zymosan
Method: Blood was collected 24 h after zymosan injection, and the sera were assayed for TNFα using a mouse TNFα ELISA kit (R&D Systems, Minneapolis, MN, USA), according to the manufacturer's instructions.

[1] = test system: zymosan-induced paw swelling; test: zymosan mouse paw inflammatory pain model, paw swelling, with or without CB2 antagonists; type: in vivo; conditions: for paw swelling vs control: 6 h; for paw swelling effects: SR144528 experiment, 24 h after induction
Method: (§1) To induce inflammation, 40 μL of 1.5% (w/v) zymosan A (Sigma) suspended in 0.9% saline was injected into the sub-planter surface of the right hind paw of the mice. Immediately after zymosan injection, antagonists were injected intraperitoneally (IP) and after 30 minutes, the fenchone derivatives dissolved in 0.1 mL vehicle containing ethanol:Cremophore:saline at a ratio of 1:1:18 were injected. Control mice were injected with the vehicle only. After 2, 6, and 24 hrs, paw swelling, and pain perception were measured.
(§2) Specifically, measurement of Oedema Formation was assessed by monitoring paw swelling via calibrated calipers (0.01 mm), 6 and 24 hrs following injections of zymosan alone and/or the test compounds. Pain hyperalgesia was evaluated by the paw withdrawal von Frey test at 6, and 24 h following injections of zymosan and/or the test compounds. […] In this study, only 1.4-60 g corresponding to 4.17 to 5.88 log of force was used, to test the mouse sensitivity to a mechanical stimulus on the swollen paw. The measurements were performed in a quiet room. Before paw pain measurements, the animals were held for 10 sec. The trained investigator applied the filament to the central area of the hind paw with gradual increasing size. The test consisted of poking the middle of the hind paw to provoke a flexion reflex followed by a clear flinch response after paw withdrawal. Each one of the von Frey filaments was applied for approximately 3-4 s to induce the end-point reflex. The first testing was done by using the force filament of 1.4 g. If there was no withdrawal response, the next higher stimulus was tried. The mechanical threshold force (in grams (g)) was defined as the lowest force imposed by two von Frey monofilaments of various sizes, required to produce a paw retraction. The untreated left hind paw served as a control.

[2] = test system: zymosan-induced hyperalgesia; test: zymosan mouse paw inflammatory pain model, von Frey test, with or without CB2 antagonists; type: in vivo; conditions: for von Frey pain effect: SR144528 experiment, 25 mg/kg IP
Method: as §1, §2

[3] = test system: medial meniscal tear (MMT) post-traumatic OA; test: rat medial meniscal tear (MMT) model, body weight and dynamic weight bearing; type: in vivo
Method: Initially, the required amount of HU308 dissolved in ethanol followed by addition of […] with vigorous mechanical agitation to form viscous micelle solution. Finally, the micelle solution was diluted in ice cold saline for injection or culture assays. Vehicle solution consisted of ethanol, cremophor and saline at 1:1:18 ratio. For intra-articular (IA) dosing 50 μL was injected into the tibiofemoral joint, at two doses; 8 and 24 μg/mL. Vehicle control contained 1:1:18 ethanol/Cremophor/saline, while positive control was of IA administered 60 μg/mL FGF-18 (R&D Systems, catalogue No. 8988-F18-050, lot No. BVE0521071) for IA dosing at 50 μL/knee.
(§3) The rat OA model employed was surgically-induced medial meniscal tear (MMT), wherein rats were anesthetized with Isoflurane (VetOne, catalogue No. 502017), and the right knee area was prepared for surgery. A skin incision was made over the medial aspect of the knee, and the medial collateral ligament was exposed by blunt dissection and then transected. The medial meniscus was cut through the full thickness to simulate a complete tear. Skin and subcutis were closed with 4-0 Coated Vicryl (polyglactin 910) Violet Braided Suture (Ethicon, catalogue No. J399H), and slight hand pressure was applied to the wound for approximately 3 minutes for hemostasis. Subcutaneous (SC) dose of buprenorphine (0.05 mg/kg) administered after the animal awakened post-surgery. Rats were weighed daily on study days −1 through 7 and again on days 14, 21, and 28 (prior to necropsy). […] The animals were euthanized for necropsy 28 days post-surgery, following Isoflurane anesthesia, and bled to exsanguination followed by bilateral pneumothorax.

[4] = test system: medial meniscal tear (MMT) post-traumatic OA; test: rat MMT model, histopathology of medial tibial joint 28 days post MMT; type: in vivo; conditions: for osteophyte measurements and scores: vs vehicle
Method: as §3
Right knees were collected from all animals and trimmed of muscle and patellae. The trimmed joints were placed in 10% neutral buffered formalin (NBF) for histologic processing and evaluation. Samples were fixed for 3 days in 4% paraformaldehyde and decalcified for 21 days in 10% EDTA, pH=7.5. Then following dehydration in a graded series of ethanol washes, joints were embedded in paraffin and sectioned to 7 μm slices, following trimming off 1 mm until the tibiofemoral compartments are fully observed. Sections were obtained from each knee and stained with toluidine blue (0.04% in 0.2 M acetate buffer, Ph=4.0), based on a modified version of the methods used in Schmitz, et al. (2010), (11). Histopathology was carried out using an ocular micrometer. The following structural histological characterization was carried out:
Regional differences across the tibial plateau were taken into consideration by dividing each section into three zones: (1) outside, (2) middle, and (3) inside. In the surgical OA model, the outside (zone-1) and middle (zone-2) thirds are most severely affected, and milder changes are present on the inside third (zone 3). When zones were scored individually, scores were assigned based on percent area of the zone affected. General cartilage degeneration including chondrocyte death/loss, proteoglycan (PG) loss, and collagen loss or fibrillation. Zones were scored individually (0-5; 5 representing sever damage; SD3), and a sum of all three zones was calculated (termed “Total Joint scores”).
The zone related cartilage depth is calculated from the projected articular surface tot the tidemark. Reduced ratios embody less detected cartilage width vs projected cartilage with area, per zone.
Osteophyte thickness (tidemark to furthest point extending toward synovium) was measured and scored according to a range from 0-5, as in SD4.
Damage to the calcified cartilage layer and subchondral bone was scored using the criteria in SD5. Generally damage was considered as invagination of deep zone cartilage into the subchondral bone layer.
[…] Descriptions of other changes (typically fibrosis, or acute inflammation/neutrophil infiltration extending into the lateral compartment usually associated with IA treatments) were also provided, if present.

[5] = 25 mg/kg IP together with CB2 antagonist SR144528 1 mg/kg

| SMILES | levels of TNF-α (TNFα) | paw swelling ([1]; 25 mg/kg IP 1D and 10 mg/kg AM630, 6 h) | paw swelling ([1]; 25 mg/kg IP alone, 24 h, AM630 experiment) | paw swelling vs control [1, 5] | paw swelling vs control ([1]; 25 mg/kg IP, alone) | paw swelling effects [1] | von Frey pain phenotype ([2]; 25 mg/kg IP alone, AM630 experiment) | von Frey pain effect [2] | dynamic weight bearing, left to right load bearing ([3]; 1D high dose 24 μg/mL IA) | change in rat weight from 4 days to 28 days post MMT ([3]; 1D high dose 24 μg/mL IA, vs Vehicle and FGF18 groups) | dynamic weight bearing, left to right load bearing ([3]; 1D low dose 8 μg/mL IA) | mean zonal depth ratios ([4]; 1D high dose 24 μg/mL IA) | zone 3 cartilage degeneration score ([4]; 1D high dose 24 μg/mL IA) | total zonal cartilage degeneration scores ([4]; 1D high dose 24 μg/mL IA, vs 1D low dose and Vehicle) | osteophyte measurements and scores ([4]; 1D high dose 24 μg/mL IA) | synovitis scores ([4]; 1D low dose 8 μg/mL IA) | zone 3 cartilage degeneration score ([4]; 1D low dose 8 μg/mL IA) | osteophyte measurements and scores ([4]; 1D low dose 8 μg/mL IA) |
| --- | --- | --- | --- | --- | --- | --- | --- | --- | --- | --- | --- | --- | --- | --- | --- | --- | --- | --- |
| CCCCCCC(C)(C)c1cc(OC)c([C@]2(O)C3(C)CCC(C3)C2(C)C)c(OC)c1 (stereo partly shown) [Compound 1d, 2-(2,6′-dimethoxy-4′-(2″-methyloctan-2″-yl)phenyl)-1,3,3-trimethyl-bicyclo[2.2.1]heptan-2-ol] | reduced significantly | reduced swelling | reduced swelling with 1D alone was sustained | swelling was reduced compared to the control | reduced swelling response | not observed | significant affect | insignificant | statistically insignificant levels vs sham and vehicle | slight but significant increase | increased left to right lad bearing vs sham | reduced depth ratios | less degeneration scores which were statistically significant | significantly reduced degenerative scores | didn't display any differences | higher | less degeneration scores which were statistically significant | didn't display any differences |
| CCCCCc1cc(OC)c(C2(O)C3(C)CCC(C3)C2(C)C)c(OC)c1 (single isomer, unassigned) [Compound 1b, 2-(2,6′-dimethoxy-4′-pentylphenyl)-1,3,3-trimethylbicyclo[2.2.1]heptan-2-ol] | – | – | – | paw swelling was unaffected | reduced swelling response | not observed | – | insignificant | – | – | – | – | – | – | – | – | – | – |
